Patent US20240057598A1, “USE OF 2-AMINO-3-METHYLHEXANOIC ACID AS PLANT IMMUNITY INDUCER” (NANJING AGRICULTURAL UNIVERSITY, priority 2020, published 2024)

Key:
[1] = system: Aerobacter aerogenes; settings: cited from earlier work
[2] = system: Escherichia coli K-12; settings: cited from earlier work
[3] = system: Achromobacter butyri; settings: cited from earlier work
[4] = system: P. fluorescens; settings: cited from earlier work
[5] = system: "Sikang 1" cotton; assay: Induced resistance of cotton to salt stress; type: in vivo; settings: 100 mM NaCl, three days
Protocol: The experimental material was “Sikang 1” cotton, which was cultured in water in a 500 mL plastic cup, and a ½ Hoagland nutrient solution was changed every three days. When the cotton seedling grew until the second true leaf fully unfolded, the leaf surface was sprayed with 2-amino-3-methylhexanoic acid solutions. The concentrations of 0, 1, 10, 100 and 1,000 nM were set in the experiment, and 0.02% Tween 20 was added as a surfactant. The spraying was repeated once after 24 h and conducted twice in total. On the second day after the treatment, NaCl was added to the ½ Hoagland nutrient solution to a final concentration of 100 mM to conduct salt stress treatment. There were three repetitions in each treatment group. Rehydration treatment was conducted after three days of salt stress, the salt injury symptoms of cotton were observed, and the salt injury index was calculated by a formula as follows: […]

[6] = system: tomato; assay: Induced resistance of tomato to high temperature stress; type: in vivo
Protocol: 2-amino-3-methylhexanoic acid was dissolved in distilled water and diluted with distilled water into solutions of 1 nM, 10 nM, 100 nM and 1,000 nM by gradient. A blank control was additionally set, and 0.02% Tween 20 was added as a surfactant. 4 groups of repetitions were set for each concentration, and a normal temperature blank control was set at the same time. Ryegrass seeds were weighed according to 0.8 g per pot, sowed in a pot with a diameter of 8.5 cm, and planted in a greenhouse at a temperature of 25° C., a humidity of 60%-70%, and a light intensity of 200 μmolm^−2s^−1 (12 h light/12 h dark). On the 8th day of the seedling stage, the ryegrass was sprayed with the 2-amino-3-methylhexanoic acid solutions on the leaves twice in 24 h. 24 h after the second treatment, the plants were transferred to a light incubator at a temperature of 45° C. for conducting high temperature stress treatment for 12 h, and then the plants were taken out and transferred to a greenhouse at a temperature of 25° C. for 7 days of recovery. The injured conditions of the plants were observed and counted, and the heat injury grade was calculated. […] After the counting, the fresh weight of the aboveground part of the plant was weighed, and then the aboveground part was baked in an 85° C. oven for 48 h to determine the dry weight.
Tomato seeds were sowed in small pots, and three tomato seedlings with the same growth condition were transplanted into one pot after emergence. The planting method and conditions were the same as above. When the tomato grew for 18 days in the seedling stage, the experiment was conducted. High temperature stress was conducted at 42° C. for 9 h, and the treatment method and subsequent statistical indexes were the same as those of the above.

[7] = system: tea "Baiye 1" cutting seedlings; assay: Induced resistance of tea to low temperature stress; type: in vivo; settings: for PIABS / Cold injury index: tea seedlings, −4° C. for 24 h; for Cold injury index: 3 days recovery
Protocol: The tea trees tested were “Baiye 1” cutting seedlings. Tea seedlings with relatively consistent growth were transplanted into a plastic pot with a diameter of 18 cm and placed in a greenhouse at a temperature of 25° C. and a humidity of 60%-70% for adaptive growth for about a week. The concentrations of 0, 1, 10, 100 and 1,000 nM were set in the experiment, and 0.02% Tween 20 was added as a surfactant. The spray treatment method was the same as that of the ryegrass in Example 4, and the low temperature stress treatment was conducted at −4° C. for 24 h. After the stress was completed, the tea seedlings were taken out and treated in the dark at room temperature for 30 min, and then the chlorophyll fluorescence parameters of the top leaves of the tea seedlings was determined using the plant efficiency analyzer Handy PEA. Then, the tea seedlings were placed in a 25° C. greenhouse to recover for 3 days, and the cold injury status was observed, counted and graded.

[8] = 10 nM, 42° C. 9 h, 7 days recovery
[9] = 100 nM, 42° C. 9 h, 7 days recovery
[10] = 1,000 nM, 42° C. 9 h, 7 days recovery
[11] = 1,000 nM, tea leaves, low temperature stress

For `CCCC(C)C(N)C(=O)O` (stereo not drawn) [2-amino-3-methylhexanoic acid], the Inhibitory effect [1] is listed as “no inhibitory effect”, the Inhibitory effect [2] is listed as “obvious inhibitory effect” and the Inhibitory effect [3] is listed as “slight inhibitory effect”. The Inhibitory effect [4] was “no inhibitory effect”, the Death rate ([5]; 1 nM) was 50% and the Salt injury index ([5]; 1 nM) was 67%. The Death rate ([5]; 10 nM) was 50%, the Salt injury index ([5]; 10 nM) was 63% and the Death rate ([5]; 100 nM) was 33%. It also gave a Salt injury index ([5]; 100 nM) of 56%, a Death rate ([5]; 1,000 nM) of 33% and a Salt injury index ([5]; 1,000 nM) of 47%. For the same compound, the “Optimum concentration inducing resistance to high temperature stress” value [6] was 1,000 nM, the “Dry weight of overground part” value [6, 8] was 0.05 ± 0.01b g and the Heat injury index [6, 8] was 95. The “Dry weight of overground part” value [6, 9] was 0.06 ± 0.02 g·h, the “Fresh weight of overground part” value [6, 9] was 0.61 ± 0.16abc g and the Heat injury index [6, 9] was 90. For the same compound, the “Dry weight of overground part” value [6, 10] was 0.08 ± 0.003ab g, the Heat injury index [6, 10] was 60 and the PIABS ([7]; 1 nM) was 17.69 ± 2.12b. For the same compound, the Cold injury index ([7]; 1 nM) was 45%, the PIABS ([7]; 10 nM) was 21.30 ± 1.73ab and the Cold injury index ([7]; 10 nM) was 30%. For the same compound, the PIABS ([7]; 100 nM) was 27.01 ± 3.27a, the Cold injury index ([7]; 100 nM) was 15% and the “Decrease of cold injury index” value [7, 11] was 65%. For the same compound, the “Increase of PIABS” value [7, 11] was 313%, the PIABS ([7]; 1,000 nM) was 30.42 ± 3.51a and the Cold injury index ([7]; 1,000 nM) was 10%.
